Assay results as given in article PMC4527083 (European journal of pharmacology, 2014).

Molecular target: HERG potassium channel (human ether-a-go-go related gene) (Homo sapiens, UniProt Q12809)
Experiment: cell-based

HERG potassium channel (human ether-a-go-go related gene), sequence (Q12809 whole entry): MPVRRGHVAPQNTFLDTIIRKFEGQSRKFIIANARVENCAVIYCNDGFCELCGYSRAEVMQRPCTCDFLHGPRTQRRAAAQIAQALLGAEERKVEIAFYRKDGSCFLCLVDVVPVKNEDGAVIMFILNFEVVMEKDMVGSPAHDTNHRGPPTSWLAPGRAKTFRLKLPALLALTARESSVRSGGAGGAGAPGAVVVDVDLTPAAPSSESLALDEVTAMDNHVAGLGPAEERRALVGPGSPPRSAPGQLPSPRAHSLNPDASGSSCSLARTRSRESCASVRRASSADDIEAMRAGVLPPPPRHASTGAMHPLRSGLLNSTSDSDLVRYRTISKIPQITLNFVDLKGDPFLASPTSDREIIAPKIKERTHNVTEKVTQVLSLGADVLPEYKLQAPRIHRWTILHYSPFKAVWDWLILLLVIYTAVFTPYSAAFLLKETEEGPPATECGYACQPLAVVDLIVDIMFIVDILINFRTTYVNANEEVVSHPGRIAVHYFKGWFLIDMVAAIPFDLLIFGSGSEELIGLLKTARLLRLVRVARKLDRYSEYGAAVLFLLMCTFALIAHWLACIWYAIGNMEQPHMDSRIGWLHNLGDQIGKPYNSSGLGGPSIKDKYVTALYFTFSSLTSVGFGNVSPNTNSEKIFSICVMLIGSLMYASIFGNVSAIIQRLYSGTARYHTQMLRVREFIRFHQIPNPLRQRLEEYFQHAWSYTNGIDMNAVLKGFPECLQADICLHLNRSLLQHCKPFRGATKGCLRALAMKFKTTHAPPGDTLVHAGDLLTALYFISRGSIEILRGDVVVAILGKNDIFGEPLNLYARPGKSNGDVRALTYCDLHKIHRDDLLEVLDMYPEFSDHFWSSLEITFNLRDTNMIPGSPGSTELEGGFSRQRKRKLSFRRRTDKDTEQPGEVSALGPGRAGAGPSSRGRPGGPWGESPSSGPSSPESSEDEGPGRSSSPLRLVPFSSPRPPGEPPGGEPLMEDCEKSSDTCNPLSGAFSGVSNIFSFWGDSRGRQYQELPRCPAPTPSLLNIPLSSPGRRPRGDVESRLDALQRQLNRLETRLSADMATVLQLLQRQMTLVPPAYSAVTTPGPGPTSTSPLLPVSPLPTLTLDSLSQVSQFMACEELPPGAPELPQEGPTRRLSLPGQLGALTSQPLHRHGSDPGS

`CCCCCCCCCCCC[N+](C)(C)CCOc1ccccc1` [DB, domiphen bromide] gave an IC50 of 9 nM.
